Laboratory results: PubChem BioAssay AID1963865 (Molecular Pharmacology Branch, DTP, NCI, 2024)

System: KRAS PDC multicell spheroid viability
Experiment: Anticancer human tumor 825966-067-R-J1-PDC patient-derived colon carcinoma cell line growth inhibition [KRAS2]
Details: for IC50: curve of first compound; for viability, T/C: stronger effect = lower value
How it was run: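 KRAS-mutant tumor cells were grown as spheroids with HUVEC endothelial cells and human MSCs as stroma. Targeted agents were tested alone and with KRAS pathway inhibitors. Doses started at or near clinical Cmax, or 10 microM, descending half-log.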

[1] = second compound 0.1 µM, first compound 0.000316 µM
[2] = second compound 0.1 µM, first compound 0.001 µM
[3] = second compound 0.1 µM, first compound 0.00316 µM
[4] = second compound 0.1 µM, first compound 0.01 µM
[5] = second compound 0.1 µM, first compound 0.0316 µM
[6] = second compound 0.1 µM, first compound 0.1 µM
[7] = second compound 0.316 µM, first compound 0.000316 µM
[8] = second compound 0.316 µM, first compound 0.001 µM
[9] = second compound 0.316 µM, first compound 0.00316 µM
[10] = second compound 0.316 µM, first compound 0.01 µM
[11] = second compound 0.316 µM, first compound 0.0316 µM
[12] = second compound 0.316 µM, first compound 0.1 µM
[13] = second compound 1 µM, first compound 0.000316 µM
[14] = second compound 1 µM, first compound 0.001 µM
[15] = second compound 1 µM, first compound 0.00316 µM
[16] = second compound 1 µM, first compound 0.01 µM
[17] = second compound 1 µM, first compound 0.0316 µM
[18] = second compound 1 µM, first compound 0.1 µM
[19] = second compound 3.16 µM, first compound 0.000316 µM
[20] = second compound 3.16 µM, first compound 0.001 µM
[21] = second compound 3.16 µM, first compound 0.00316 µM
[22] = second compound 3.16 µM, first compound 0.01 µM
[23] = second compound 3.16 µM, first compound 0.0316 µM
[24] = second compound 3.16 µM, first compound 0.1 µM
[25] = second compound 10 µM, first compound 0.000316 µM
[26] = second compound 10 µM, first compound 0.001 µM
[27] = second compound 10 µM, first compound 0.00316 µM
[28] = second compound 10 µM, first compound 0.01 µM
[29] = second compound 10 µM, first compound 0.0316 µM
[30] = second compound 10 µM, first compound 0.1 µM
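Note: spheroids exposed to compounds for 7 days.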
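Throughout, for viability, T/C: 100% = DMSO vehicle control viability.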

SMILES | IC50 (second compound 0.1 µM) [nM] | IC50 (second compound 0.316 µM) [nM] | IC50 (second compound 1 µM) [nM] | IC50 (second compound 3.16 µM) [nM] | IC50 (second compound 10 µM) [nM] | viability, T/C [1] [%] | viability, T/C [2] [%] | viability, T/C [3] [%] | viability, T/C [4] [%] | viability, T/C [5] [%] | viability, T/C [6] [%] | viability, T/C [7] [%] | viability, T/C [11] [%] | viability, T/C [12] [%] | viability, T/C [17] [%] | viability, T/C [18] [%] | viability, T/C [23] [%] | viability, T/C [24] [%] | viability, T/C [29] [%] | viability, T/C [30] [%] | also measured
CC(C)n1nc(-c2ccc3oc(N)nc3c2)c2c(N)ncnc21 + COc1cc2nc(C)nc(NC(C)c3cc(N)cc(C(F)(F)F)c3)c2cc1OC1CCOC1 | > 100 | > 100 | > 100 | > 100 | < 0.316 | 59.7 | 93.1 | 125 | 154 | 79 | 99.4 | 97.1 | 84 | 81.7 | 82.8 | 75.2 | 82.2 | 81.5 | 11.2 | 3.11 | viability, T/C [8]: 99%; viability, T/C [9]: 116%; viability, T/C [10]: 137%; viability, T/C [13]: 100%; viability, T/C [14]: 103%; viability, T/C [15]: 123%; viability, T/C [16]: 131%; viability, T/C [19]: 115%; viability, T/C [20]: 109%; viability, T/C [21]: 121%; viability, T/C [22]: 63.7%; viability, T/C [25]: 6.15%; viability, T/C [26]: 2.53%; viability, T/C [27]: 15.6%; viability, T/C [28]: 12.3%
CC1(C)CCC(CN2CCN(c3ccc(C(=O)NS(=O)(=O)c4ccc(NCC5CCOCC5)c([N+](=O)[O-])c4)c(Oc4cnc5[nH]ccc5c4)c3)CC2)=C(c2ccc(Cl)cc2)C1 + COc1cc2nc(C)nc(NC(C)c3cc(N)cc(C(F)(F)F)c3)c2cc1OC1CCOC1 | 2080 | 1940 | 1990 | 2210 | 31.6 | – | – | – | – | 94.7 | 86.3 | – | 99.2 | 94.8 | 118 | 96 | 139 | 119 | 14.3 | 48.2 | viability, T/C (second compound 0.1 µM, first compound 0.316 µM): 107%; viability, T/C (second compound 0.1 µM, first compound 1 µM): 111%; viability, T/C (second compound 0.1 µM, first compound 3.16 µM): 21.4%; viability, T/C (second compound 0.1 µM, first compound 10 µM): 5.44%; viability, T/C (second compound 0.316 µM, first compound 0.316 µM): 90.6%; viability, T/C (second compound 0.316 µM, first compound 1 µM): 91.5%; viability, T/C (second compound 0.316 µM, first compound 3.16 µM): 19.7%; viability, T/C (second compound 0.316 µM, first compound 10 µM): 6.45%; viability, T/C (second compound 1 µM, first compound 0.316 µM): 114%; viability, T/C (second compound 1 µM, first compound 1 µM): 106%; viability, T/C (second compound 1 µM, first compound 3.16 µM): 12.3%; viability, T/C (second compound 1 µM, first compound 10 µM): 3.36%; viability, T/C (second compound 3.16 µM, first compound 0.316 µM): 130%; viability, T/C (second compound 3.16 µM, first compound 1 µM): 180%; viability, T/C (second compound 3.16 µM, first compound 3.16 µM): 8.21%; viability, T/C (second compound 3.16 µM, first compound 10 µM): 3.86%; viability, T/C (second compound 10 µM, first compound 0.316 µM): 68.2%; viability, T/C (second compound 10 µM, first compound 1 µM): 59.6%; viability, T/C (second compound 10 µM, first compound 3.16 µM): 1.84%; viability, T/C (second compound 10 µM, first compound 10 µM): 0.72%
Cn1ncnc1[C@H]1c2n[nH]c(=O)c3cc(F)cc(c23)N[C@@H]1c1ccc(F)cc1 + COc1cc2nc(C)nc(NC(C)c3cc(N)cc(C(F)(F)F)c3)c2cc1OC1CCOC1 | > 100 | > 100 | > 100 | > 100 | < 0.316 | 92.2 | 89.3 | 90.6 | 76.7 | 83.9 | 70.9 | 86.3 | 65.3 | 64.4 | 84.2 | 92.1 | 105 | 89.3 | 11.8 | 7.86 | viability, T/C [8]: 94.4%; viability, T/C [9]: 82.4%; viability, T/C [10]: 101%; viability, T/C [13]: 86.3%; viability, T/C [14]: 99.4%; viability, T/C [15]: 107%; viability, T/C [16]: 79.2%; viability, T/C [19]: 116%; viability, T/C [20]: 103%; viability, T/C [21]: 114%; viability, T/C [22]: 94.7%; viability, T/C [25]: 11.3%; viability, T/C [26]: 10.4%; viability, T/C [27]: 17.1%; viability, T/C [28]: 21.1%
